Measurements as given in patent US7348322B2, “Glucocorticoid receptor modulators as antiinflammatory agents” (Roche Palo Alto LLC, priority 2005, dated 2008).

Each molecule was assayed against T1, Human recombinant purified glucocorticoid receptor (Homo sapiens, UniProt P04150) (assay: Glucocorticoid receptor competitive binding assay (3H-dexamethasone)). Conditions: competition with 2 nM 3H-Dexamethasone, 1 nM GR, 4° C. overnight; read-out: Binding Affinity Ki.
T1 sequence (P04150 1-777): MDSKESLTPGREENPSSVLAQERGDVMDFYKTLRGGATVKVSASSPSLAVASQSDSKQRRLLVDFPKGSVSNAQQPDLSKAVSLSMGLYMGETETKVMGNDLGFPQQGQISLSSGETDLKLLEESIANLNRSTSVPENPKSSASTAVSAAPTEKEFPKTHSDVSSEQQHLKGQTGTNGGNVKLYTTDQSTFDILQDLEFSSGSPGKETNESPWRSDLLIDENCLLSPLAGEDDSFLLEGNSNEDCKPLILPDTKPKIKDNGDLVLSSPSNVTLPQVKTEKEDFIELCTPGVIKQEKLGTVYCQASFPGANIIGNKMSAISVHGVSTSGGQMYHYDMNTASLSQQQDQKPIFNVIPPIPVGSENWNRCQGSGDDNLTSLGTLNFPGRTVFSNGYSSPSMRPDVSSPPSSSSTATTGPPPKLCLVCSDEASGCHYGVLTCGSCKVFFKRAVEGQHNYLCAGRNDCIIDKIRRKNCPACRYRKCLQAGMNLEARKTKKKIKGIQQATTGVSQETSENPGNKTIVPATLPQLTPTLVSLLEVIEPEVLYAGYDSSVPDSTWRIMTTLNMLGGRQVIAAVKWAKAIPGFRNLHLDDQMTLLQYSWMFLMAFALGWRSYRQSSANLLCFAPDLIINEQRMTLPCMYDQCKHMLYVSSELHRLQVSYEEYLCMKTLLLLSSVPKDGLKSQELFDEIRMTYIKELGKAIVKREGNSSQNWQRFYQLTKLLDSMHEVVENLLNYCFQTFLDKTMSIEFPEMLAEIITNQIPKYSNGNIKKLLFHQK
Protocol: The affinity of glucocorticoid receptor antagonists for the glucocorticoid receptor was determined in competitive binding assays by the ability of the antagonist to compete with tritiated dexamethasone.
All assay steps were performed on ice in 96-well plates. Binding buffer contained 10 mM potassium phosphate pH 7.4, 20 mM Na2Mo4, 100 μM EDTA, 2% DMSO, and 5 mM DTT. Human recombinant purified glucocorticoid receptor was used at 1 nM. Compounds tested had up to 2% DMSO final concentration. Non-specific binding condition was 1 μM dexamethasone. The radioligand used for the competition assay was 2 nM ^3H-Dexamethasone (83 Ci/mmol stock solution). Buffer, compounds or vehicles, GR, and radioligand were incubated at 4° C. overnight. Unifilter GF/B 96-well filter plates were treated with 0.5% PEI after incubation. Samples were transferred to filter plates by a cell harvester. Filter plates were washed five times with 50 mM Tris pH 7.5 and 5 mM EDTA wash buffer. Samples were dried at 65° C. for about 1 hr. Scintillation fluid was added to filter plates at 50 μL/ well and ^3H cpm were measured on the TopCount scintillation counter.

Row | Compound | Ki [nM]
1 | O/N=C(\CNc1cccc(-c2cnco2)c1)CC1(c2ccccc2C(F)(F)F)CCC1 [Example 3, 1-(3-Oxazol-5-yl-phenylamino)-3-[1-(2-trifluoromethyl-phenyl)-cyclobutyl]-propan-2-one oxime] | 2100
2 | Cc1noc(=O)c2ccc(NCC(=O)CC3(c4ccccc4C(F)(F)F)CCC3)cc12 [Example 1, 4-Methyl-6-{2-oxo-3-[1-(2-trifluoromethyl-phenyl)-cyclobutyl]-propylamino}-benzo[d][1,2]oxazin-1-one] | 405
3 | Cc1noc(=O)c2ccc(NC/C(CC3(c4ccccc4C(F)(F)F)CCC3)=N\O)cc12 [Example 2, 1-(4-Methyl-1-oxo-1H-benzo[d][1,2]oxazin-6-ylamino)-3-[1-(2-trifluoromethyl-phenyl)-cyclobutyl]propan-2-one oxime] | 89

Other lines, results leading:

Row | Ki [nM] | Compound
4 | 723 | O=C(CC1(c2ccccc2C(F)(F)F)CCC1)C(=O)Nc1ccc(-c2cnco2)cc1 [Example 5, N-(4-Oxazol-5-yl-phenyl)-2-oxo-3-[1-(2-trifluoromethyl-phenyl)-cyclobutyl]-propionamide]
5 | 851 | ON=C(CNc1ccc(-c2cnco2)cc1)CC1(c2ccccc2C(F)(F)F)CCC1 (racemic) [Example 4, 1-(4-Oxazol-5-yl-phenylamino)-3-[1-(2-trifluoromethyl-phenyl)-cyclobutyl]-propan-2-one oxime]
6 | 2400 | O=C(CC1(c2ccccc2C(F)(F)F)CCC1)C(=O)Nc1cccc(-c2ccno2)c1 [Example 6, N-(3-Isoxazol-5-yl-phenyl)-2-oxo-3-[1-(2-trifluoromethyl-phenyl)-cyclobutyl]-propionamide]
